Test results from ChEMBL document CHEMBL5034037, “Synthesis, Characterization, and Preclinical Evaluation of a Small-Molecule Prostate-Specific Membrane Antigen-Targeted Monomethyl Auristatin E Conjugate” (J Med Chem, 2021).
pIC50: −log10 of the molar value. Activity calls are given as the source filed them. The calls are words filed in the database; no cut-off is given here. *1 amine or outer side, *2 acyl side, *3 side chain or, on linkers, in order; H or OH if unused. Where a SMILES comes first, the peptide text is derived from it. [ ]: non-standard residue; d: D form. The star is where a group is joined. GluureaLys(ε-3-ClBenzyl) = O=C(O)CC[C@H](NC(=O)N[C@@H](CCCCN(Cc1cccc(Cl)c1)*)C(=O)O)C(=O)O; Dolaproine = CO[C@@H]([C@@H]1CCCN1)[C@@H](C)C(=O)O; Dil = CC[C@H](C)[C@H](NC)[C@@H](CC(=O)O)OC; X1 = O=C(CCCc1cn(CCCN[*:1])nn1)[*:2]; PABC = O=C(OCc1ccc(N[*:1])cc1)[*:2]; X2 = C[C@@H](N*)[C@@H](O)c1ccccc1; Cit = NC(=O)NCCC[C@H](N)C(=O)O; Suc = O=C(CCC(=O)[*:2])[*:1]; NMeV = CN[C@H](C(=O)O)C(C)C; Ahx = NCCCCCC(=O)O

Tests used:
[1] = system: CWR22R; experiment: Induction of intracellular reactive oxygen species production in human 22Rv1 cells incubated for 1 hr measured at CC50 concentration by amperometric method; format: functional, cell-based
[2] = system: CWR22R; experiment: Induction morphological changes in human 22Rv1 cells assessed as decrease in cell membrane stiffness measured upto 1 hr; format: functional, cell-based; details: time hrs <=1
[3] = system: PC-3; experiment: Induction morphological changes in human PC-3 cells assessed as decrease in cell membrane stiffness measured upto 1 hr; format: functional, cell-based; details: time hrs <=1
[4] = Initial plasma concentration in Wistar rat plasma at 1.5 mg/kg, iv; format: ADME, organism-based
[5] = Stability of compound in pH 5.5 assessed as hydrolysis measured within 96 hrs; format: physicochemical; details: buffer, pH 5.5, 96 h
[6] = Toxicity in rat assessed as morphological changes in spleen at 150 to 225 microg/kg, iv; format: tissue-based; details: in vivo, dose 150-225 µg/kg
[7] = Toxicity in rat assessed as morphological changes in tongue at 150 to 225 microg/kg, iv; format: tissue-based; details: in vivo, dose 150-225 µg/kg
[8] = Toxicity in rat assessed as morphological changes in mucosae of mouth at 150 to 225 microg/kg, iv; format: tissue-based; details: in vivo, dose 150-225 µg/kg
[9] = Toxicity in rabbit morphological change in mucosae of mouth at 81 to 122 microg/kg, iv; format: tissue-based, Oryctolagus cuniculus; details: in vivo, dose 81-122 µg/kg
[10] = Toxicity in rabbit assessed as morphological changes in peritoneum at 81 to 122 microg/kg, iv; format: tissue-based, Oryctolagus cuniculus; details: in vivo, dose 81-122 µg/kg
[11] = Toxicity in rat assessed as morphological changes in abdominal cavity at 150 to 225 microg/kg, iv; details: in vivo, dose 150-225 µg/kg
[12] = Toxicity in rabbit assessed as morphological changes in gastric wall mucosa at 81 to 122 microg/kg, iv; set-up: species or system Oryctolagus cuniculus; details: in vivo, dose 81-122 µg/kg
[13] = Toxicity in rabbit assessed as morphological changes in duodenum at 81 to 122 microg/kg, iv; format: tissue-based, Oryctolagus cuniculus; details: in vivo, dose 81-122 µg/kg
[14] = Toxicity in rat assessed as morphological changes in pancreas at 150 to 225 microg/kg, iv; format: tissue-based; details: in vivo, dose 150-225 µg/kg
[15] = Toxicity in rabbit assessed as morphological changes in mucosa of thyroid gland at 81 to 122 microg/kg, iv; format: tissue-based, Oryctolagus cuniculus; details: in vivo, dose 81-122 µg/kg
[16] = Toxicity in rat assessed as morphological changes in adrenal medulla at 150 to 225 microg/kg, iv; details: in vivo, dose 150-225 µg/kg
[17] = Toxicity in rat assessed as morphological changes in heart at 150 to 225 microg/kg, iv; format: tissue-based; details: in vivo, dose 150-225 µg/kg
[18] = Toxicity in rat assessed as morphological changes in heart muscle at 150 to 225 microg/kg, iv; format: tissue-based; details: in vivo, dose 150-225 µg/kg
[19] = Toxicity in rat assessed as morphological changes in brain gyrus at 150 to 225 microg/kg, iv; format: tissue-based; details: in vivo, dose 150-225 µg/kg
[20] = Toxicity in rabbit assessed as morphological changes in brain gyrus at 81 to 122 microg/kg, iv; format: tissue-based, Oryctolagus cuniculus; details: in vivo, dose 81-122 µg/kg
[21] = Toxicity in rat assessed as morphological changes in cerebral membrane at 150 to 225 microg/kg, iv; details: in vivo, dose 150-225 µg/kg
[22] = Toxicity in rat assessed as morphological changes in spleen pulp at 150 to 225 microg/kg, iv; format: tissue-based; details: in vivo, dose 150-225 µg/kg
[23] = Toxicity in rat assessed as morphological changes in lumen of trachea at 150 to 225 microg/kg, iv; format: tissue-based; details: in vivo, dose 150-225 µg/kg
[24] = Toxicity in rat assessed as morphological changes in aortic intima at 150 to 225 microg/kg, iv; details: in vivo, dose 150-225 µg/kg
[25] = Toxicity in rat assessed as morphological changes in testes at 150 to 225 microg/kg, iv; details: in vivo, dose 150-225 µg/kg
[26] = Toxicity in rabbit assessed as morphological changes in testes at 81 to 122 microg/kg, iv; set-up: species or system Oryctolagus cuniculus; details: in vivo, dose 81-122 µg/kg
[27] = Toxicity in rabbit assessed as pathological change in leydig cells in testes at 81 to 122 microg/kg, iv; format: cell-based, Oryctolagus cuniculus; details: in vivo, dose 81-122 µg/kg
[28] = Antitumor activity against human PC-3 cells xenografted in mouse assessed as tumour growth inhibition at 0.3 mg/kg, ip daily treated for 5 days after 18 days of tumor implantation measured upto 15 days; format: functional; details: PC-3, ip, 120 h, time 5 day, read-out: TGI
[29] = Volume of distribution in rabbit at 0.81 mg/kg, iv; format: ADME, organism-based, Oryctolagus cuniculus; details: in vivo
[30] = target: T1, Cytochrome P450 3A4 (Homo sapiens, UniProt P08684); experiment: Inhibition of CYP3A4 in human liver microsome using midazolam as substrate; format: ADME, microsomes
[31] = target: T2, Cytochrome P450 2D6 (Homo sapiens, UniProt P10635); experiment: Inhibition of CYP2D6 in human liver microsome using dextromethorphan as substrate; format: ADME, microsomes
[32] = Stability of the compound in mouse liver microsome; format: ADME; details: microsomes
[33] = Stability of the compound in human liver microsome; format: ADME; details: microsomes
[34] = target: Cytochrome P450 2C9 (Homo sapiens, UniProt P11712); experiment: Drug metabolism assessed as human liver microsome CYP2C9-mediatd metabolism; format: ADME; details: microsomes
[35] = target: T2, Cytochrome P450 2D6; experiment: Drug metabolism assessed as human liver microsome CYP2D6-mediatd metabolism; format: ADME; details: microsomes
[36] = target: T1, Cytochrome P450 3A4; experiment: Drug metabolism assessed as human liver microsome CYP3A4-mediatd metabolism; format: ADME; details: microsomes
[37] = system: Salmonella typhimurium; experiment: Mutagenecity in Salmonella typhimurium TA98 in presence of metabolic activation system at 1 ug/ml by Ames test; format: toxicity, organism-based; details: salmonella enterica subsp. enterica serovar typhimurium; dose 1 µg/ml
[38] = system: Salmonella typhimurium; experiment: Mutagenecity in Salmonella typhimurium TA98 in presence of metabolic activation system at 10 ug/ml by Ames test; format: toxicity, organism-based; details: salmonella enterica subsp. enterica serovar typhimurium; dose 10 µg/ml
[39] = system: Salmonella typhimurium; experiment: Mutagenecity in Salmonella typhimurium TA98 in presence of metabolic activation system at 100 ug/ml by Ames test; format: toxicity, organism-based; details: salmonella enterica subsp. enterica serovar typhimurium; dose 100 µg/ml
[40] = system: Salmonella typhimurium; experiment: Mutagenecity in Salmonella typhimurium TA100 in presence of metabolic activation system at 1000 ug/ml by Ames test; format: toxicity, organism-based; details: salmonella enterica subsp. enterica serovar typhimurium; dose 1000 µg/ml
[41] = system: Salmonella typhimurium; experiment: Mutagenecity in Salmonella typhimurium TA97 in presence of metabolic activation system at 10000 ug/ml by Ames test; format: toxicity, organism-based; details: salmonella enterica subsp. enterica serovar typhimurium; dose 10000 µg/ml
[42] = system: Salmonella typhimurium; experiment: Mutagenecity in Salmonella typhimurium TA100 without metabolic activation system at 10000 ug/ml by Ames test; format: toxicity, organism-based; details: salmonella enterica subsp. enterica serovar typhimurium; dose 10000 µg/ml
[43] = system: Salmonella typhimurium; experiment: Mutagenecity in Salmonella typhimurium TA100 without metabolic activation system at 1000 ug/ml by Ames test; format: toxicity, organism-based; details: salmonella enterica subsp. enterica serovar typhimurium; dose 1000 µg/ml
[44] = system: Salmonella typhimurium; experiment: Mutagenecity in Salmonella typhimurium TA100 without metabolic activation system at 100 ug/ml by Ames test; format: toxicity, organism-based; details: salmonella enterica subsp. enterica serovar typhimurium; dose 100 µg/ml
[45] = system: Salmonella typhimurium; experiment: Mutagenecity in Salmonella typhimurium TA98 without metabolic activation system at 10 ug/ml by Ames test; format: toxicity, organism-based; details: salmonella enterica subsp. enterica serovar typhimurium; dose 10 µg/ml
[46] = Toxicity in rabbit assessed as traumatic vein injury at 81 to 122 microg/kg, iv; format: tissue-based, Oryctolagus cuniculus; details: in vivo, dose 81-122 µg/kg
[47] = Toxicity in rabbit assessed as hemorrhage at 81 to 122 microg/kg, iv; set-up: species or system Oryctolagus cuniculus; details: in vivo, dose 81-122 µg/kg

T2 sequence (P10635 whole entry): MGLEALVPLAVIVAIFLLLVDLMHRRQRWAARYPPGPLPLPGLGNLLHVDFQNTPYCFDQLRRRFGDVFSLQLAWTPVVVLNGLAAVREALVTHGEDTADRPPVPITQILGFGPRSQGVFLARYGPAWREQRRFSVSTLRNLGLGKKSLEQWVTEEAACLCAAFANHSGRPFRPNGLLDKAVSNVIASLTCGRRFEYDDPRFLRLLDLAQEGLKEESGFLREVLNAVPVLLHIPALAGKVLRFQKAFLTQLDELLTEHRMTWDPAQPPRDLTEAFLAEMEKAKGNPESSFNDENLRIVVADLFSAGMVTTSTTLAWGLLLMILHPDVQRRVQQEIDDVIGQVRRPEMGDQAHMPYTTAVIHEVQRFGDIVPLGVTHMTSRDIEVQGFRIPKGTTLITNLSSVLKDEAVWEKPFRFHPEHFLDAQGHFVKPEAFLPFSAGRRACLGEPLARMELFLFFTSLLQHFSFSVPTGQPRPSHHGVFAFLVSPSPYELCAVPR
T1 sequence (P08684 whole entry): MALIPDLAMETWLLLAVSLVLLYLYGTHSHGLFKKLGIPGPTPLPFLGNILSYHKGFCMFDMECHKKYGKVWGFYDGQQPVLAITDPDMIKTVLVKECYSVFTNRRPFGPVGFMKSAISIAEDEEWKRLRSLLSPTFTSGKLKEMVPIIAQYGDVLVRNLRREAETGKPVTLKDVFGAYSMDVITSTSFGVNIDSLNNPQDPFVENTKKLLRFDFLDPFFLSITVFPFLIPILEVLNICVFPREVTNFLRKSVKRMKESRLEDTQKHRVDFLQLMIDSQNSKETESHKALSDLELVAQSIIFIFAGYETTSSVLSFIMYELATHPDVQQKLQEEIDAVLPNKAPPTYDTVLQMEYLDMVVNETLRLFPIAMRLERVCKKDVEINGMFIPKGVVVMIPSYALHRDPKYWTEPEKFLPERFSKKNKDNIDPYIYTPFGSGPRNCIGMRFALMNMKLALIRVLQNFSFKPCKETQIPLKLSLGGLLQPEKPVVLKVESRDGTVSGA
Cytochrome P450 2C9, sequence (P11712 whole entry): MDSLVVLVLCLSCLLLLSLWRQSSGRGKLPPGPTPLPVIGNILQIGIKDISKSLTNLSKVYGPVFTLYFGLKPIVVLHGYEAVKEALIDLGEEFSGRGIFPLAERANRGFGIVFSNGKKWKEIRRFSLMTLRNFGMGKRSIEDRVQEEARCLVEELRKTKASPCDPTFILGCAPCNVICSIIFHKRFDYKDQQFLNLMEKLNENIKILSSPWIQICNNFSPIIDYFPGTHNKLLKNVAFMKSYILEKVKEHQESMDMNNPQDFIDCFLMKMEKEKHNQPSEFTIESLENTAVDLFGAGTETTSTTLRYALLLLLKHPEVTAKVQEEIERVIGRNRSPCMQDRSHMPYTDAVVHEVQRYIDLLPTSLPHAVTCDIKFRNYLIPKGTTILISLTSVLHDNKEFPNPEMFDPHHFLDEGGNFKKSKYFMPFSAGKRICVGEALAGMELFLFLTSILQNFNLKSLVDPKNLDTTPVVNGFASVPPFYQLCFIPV

CC[C@H](C)[C@@H]([C@@H](CC(=O)N1CCC[C@H]1[C@H](OC)[C@@H](C)C(=O)N[C@H](C)[C@@H](O)c1ccccc1)OC)N(C)C(=O)[C@@H](NC(=O)[C@H](C(C)C)N(C)C(=O)OCc1ccc(NC(=O)[C@H](CCCNC(N)=O)NC(=O)[C@@H](NC(=O)CCCc2cn(CCCNC(=O)[C@H](Cc3ccc(O)cc3)NC(=O)[C@H](Cc3ccccc3)NC(=O)CCC(=O)NCCCCCC(=O)N(CCCC[C@H](NC(=O)N[C@@H](CCC(=O)O)C(=O)O)C(=O)O)Cc3cccc(Cl)c3)nn2)C(C)C)cc1)C(C)C ({GluureaLys(ε-3-ClBenzyl)-Ahx-Suc}-FY[X1]V[Cit][PABC][NMeV]V[Dil][Dolaproine]-X2)
Activity [1]: Active | Activity [2]: Active | Activity [3]: Active | C0 [4]: 31000 ng/mL | Stability [5]: Stable | Activity [6]: Non-Toxic | Activity [7]: Non-Toxic | Activity [8]: Non-Toxic | Activity [9]: Non-Toxic | Activity [10]: Non-Toxic | Activity [11]: Non-Toxic | Activity [12]: Non-Toxic | Activity [13]: Non-Toxic | Activity [14]: Non-Toxic | Activity [15]: Non-Toxic | Activity [16]: Non-Toxic | Activity [17]: Non-Toxic | Activity [18]: Non-Toxic | Activity [19]: Non-Toxic | Activity [20]: Non-Toxic | Activity [21]: Non-Toxic | Activity [22]: Non-Toxic | Activity [23]: Non-Toxic | Activity [24]: Non-Toxic | Activity [25]: Non-Toxic | Activity [26]: Non-Toxic | Activity [27]: Non-Toxic | inhibition in vivo at 0.3 mg/kg [28]: 37.7% | Vd [29]: 0.158 L/kg | pIC50 [30]: 4.95 | pIC50 [31]: < 4.60 | Stability [32]: Unstable | Stability [33]: Unstable | Drug metabolism [34]: Metabolite_Notdetected | Drug metabolism [35]: Metabolite_Notdetected | Drug metabolism [36]: Metabolite_Notdetected | Activity [37]: Non-Toxic | Activity [38]: Non-Toxic | Activity [39]: Non-Toxic | Activity [40]: Non-Toxic | Activity [41]: Non-Toxic | Activity [42]: Non-Toxic | Activity [43]: Non-Toxic | Activity [44]: Non-Toxic | Activity [45]: Non-Toxic | Activity [46]: Toxic | Activity [47]: Toxic
